Data published in patent publication US20260284028A1, “FUSED BICYCLIC HETEROCYCLYL COMPOUNDS AS CCR4 MODULATORS” (AURIGENE ONCOLOGY LIMITED, priority 2023, published 2026).
Like-named read-outs stand apart in the source and are kept apart here.

Biological target: T1, CCR4 (Homo sapiens, UniProt P51679)
T1 construct: expressed in transfected cells; host or cells: CHO-K1
T1 sequence (P51679 1-360): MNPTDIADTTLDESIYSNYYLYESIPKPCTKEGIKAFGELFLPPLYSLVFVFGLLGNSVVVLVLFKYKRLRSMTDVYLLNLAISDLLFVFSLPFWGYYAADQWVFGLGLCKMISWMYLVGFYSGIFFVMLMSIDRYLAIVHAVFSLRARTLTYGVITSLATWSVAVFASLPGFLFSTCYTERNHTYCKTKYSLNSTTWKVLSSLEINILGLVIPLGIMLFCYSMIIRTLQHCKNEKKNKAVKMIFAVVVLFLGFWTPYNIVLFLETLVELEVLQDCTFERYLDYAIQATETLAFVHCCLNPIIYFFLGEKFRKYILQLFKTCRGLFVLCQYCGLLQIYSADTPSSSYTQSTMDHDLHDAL
Assay: β-Arrestin recruitment assay (CHO-K1 CCR4 β-Arrestin cells stimulated with recombinant human CCL22)
Format: cell-based
Details: CCL22 10 nM stimulation; for IC50: read-out: CCR4 antagonistic activity IC50 (μM) in range; for inhibition: read-out: % inhibition at 5 μM/30 μM (% E-Max)
Description: CHO-K1 CCR4 β-Arrestin cells were seeded and incubated overnight at 37° C. in a CO2 incubator for adherence. Next day, cells were pretreated with various concentrations of CCR4 modulators for 30 mins at 37° C. The cells were stimulated with recombinant human CCL22 (10 nM) and further incubated for 90 mins. Working detection solution was added and incubated at room temperature for 1 hour after which the chemiluminescent signal was read using a luminometer.
Exemplary compounds of the present application were screened by the above-mentioned assay and the results were tabulated.

[1] = CHO-K1, read-out: % inhibition 30 μM (% E-Max)

Row | SMILES | IC50 [µM] | inhibition [1] [%] | % inhibition at 5 μM/30 μM (% E-Max) [% at 5 μM] | inhibition (CHO-K1, at 30 μM) [%]
1 | CC(Nc1c(F)ccc2nc(N3CC([C@H]4CCCN([C@H]5C[C@](C)(C(=O)O)C5)C4)C3)sc12)c1ncc(Cl)cc1Cl (mixture of isomers) [Compound 35, (1R,3r)-3-((3R)-3-(1-(7-((1-(3,5-dichloropyridin-2-yl)ethyl)amino)-6-fluorobenzo[d]thiazol-2-yl)azetidin-3-yl)piperidin-1-yl)-1-methylcyclobutane-1-carboxylic acid] | < 0.25 | 102 |  | 
2 | C[C@@H](Nc1c(F)ccc2nc(N3CC(C4CN([C@H]5C[C@](C)(C(=O)O)C5)CCO4)C3)sc12)c1ccc(Cl)cc1Cl (single isomer, unassigned) [Compound 27] | 0.25 to 0.5 |  | 99 | 
3 | C[C@@H](Nc1c(F)ccc2nc(N3CC(C4CN([C@H]5C[C@](C)(C(=O)O)C5)CCO4)C3)sc12)c1ccc(Cl)cc1Cl (single isomer, unassigned) [Compound 28] |  |  | 72 | 
4 | C[C@@H](Nc1c(F)cnc2nc(N3CC([C@H]4CCCN([C@H]5C[C@](C)(C(=O)O)C5)C4)C3)sc12)c1ncc(Cl)cc1Cl (single isomer, unassigned) [Compound 42] | 0.25 to 0.5 | 103 |  | 
5 | C[C@H](Nc1c(F)cnc2nc(N3CC([C@H]4CCCN([C@H]5C[C@](C)(C(=O)O)C5)C4)C3)sc12)c1ncc(Cl)cc1Cl (single isomer, unassigned) [Compound 43] | > 0.5 | 95 |  | 
6 | C[C@@H](Nc1c(F)cnc2nc(N3CC([C@H]4CCCN([C@H]5C[C@](C)(C(=O)O)C5)C4)C3)sc12)c1ncc(F)cc1F (single isomer, unassigned) [Compound 45] | > 0.5 | 89 |  | 
7 | C[C@H](Nc1c(F)cnc2nc(N3CC([C@H]4CCCN([C@H]5C[C@](C)(C(=O)O)C5)C4)C3)sc12)c1ncc(F)cc1F (single isomer, unassigned) [Compound 46] | 0.25 to 0.5 | 99 |  | 
8 | C[C@H](Nc1c(OC(F)F)ccc2nc(N3CC([C@H]4CCCN([C@H]5C[C@](C)(C(=O)O)C5)C4)C3)sc12)c1ncc(Cl)cc1Cl (single isomer, unassigned) [Compound 49] | 0.25 to 0.5 | 99 |  | 
9 | C[C@@H](Nc1c(OC(F)F)ccc2nc(N3CC([C@H]4CCCN([C@H]5C[C@](C)(C(=O)O)C5)C4)C3)sc12)c1ncc(F)cc1F (single isomer, unassigned) [Compound 51] | > 0.5 |  |  | 77
10 | C[C@@H](Nc1c(Cl)ccc2nc(N3CC([C@H]4CCCN([C@H]5C[C@](C)(C(=O)O)C5)C4)C3)oc12)c1ccc(Cl)cc1Cl [Compound 1, (1R,3r)-3-((R)-3-(1-(6-Chloro-7-(((R)-1-(2,4-dichlorophenyl)ethyl)amino)benzo[d]oxazol-2-yl)azetidin-3-yl)piperidin-1-yl)-1-methylcyclobutane-1-carboxylic acid] | < 0.25 |  |  | 103
11 | C[C@@H](Nc1cccc2nc(N3CC([C@H]4CCCN([C@H]5C[C@](C)(C(=O)O)C5)C4)C3)oc12)c1ccc(Cl)cc1Cl [Compound 2, (1R,3r)-3-((R)-3-(1-(7-(((R)-1-(2,4-dichlorophenyl)ethyl)amino)benzo[d]oxazol-2-yl)azetidin-3-yl)piperidin-1-yl)-1-methylcyclobutane-1-carboxylic acid] | < 0.25 |  |  | 99.5
12 | C[C@@H](Nc1cccc2c1nc(N1CC([C@H]3CCCN([C@H]4C[C@](C)(C(=O)O)C4)C3)C1)n2C)c1ccc(Cl)cc1Cl [Compound 4] |  |  |  | 71
13 | Cc1cc(N[C@H](C)c2ccc(Cl)cc2Cl)c2oc(N3CC([C@H]4CCCN([C@H]5C[C@](C)(C(=O)O)C5)C4)C3)nc2c1 [Compound 5] | 0.25 to 0.5 |  |  | 102
14 | C[C@@H](Nc1c(F)ccc2nc(N3CC([C@H]4CCCN([C@H]5C[C@](C)(C(=O)O)C5)C4)C3)oc12)c1ccc(Cl)cc1Cl [Compound 6] | < 0.25 |  |  | 104
15 | C[C@@H](Nc1cc(Cl)cc2nc(N3CC([C@H]4CCCN([C@H]5C[C@](C)(C(=O)O)C5)C4)C3)oc12)c1ccc(Cl)cc1Cl [Compound 7] | 0.25 to 0.5 |  |  | 101
16 | C[C@@H](Nc1cccc2nc(N3CC([C@H]4CCCN([C@H]5C[C@](C)(C(=O)O)C5)C4)C3)sc12)c1ccc(Cl)cc1Cl [Compound 8] | 0.25 to 0.5 | 102 |  | 
17 | Cc1cc2nc(N3CC([C@H]4CCCN([C@H]5C[C@](C)(C(=O)O)C5)C4)C3)oc2c(N[C@H](C)c2ccc(Cl)cc2Cl)c1Cl [Compound 9] | < 0.25 | 103 |  | 
18 | COc1ccc2nc(N3CC([C@H]4CCCN([C@H]5C[C@](C)(C(=O)O)C5)C4)C3)oc2c1N[C@H](C)c1ccc(Cl)cc1Cl [Compound 10] | 0.25 to 0.5 | 93 |  | 
19 | C[C@@H](Nc1c(OC(F)F)ccc2nc(N3CC([C@H]4CCCN([C@H]5C[C@](C)(C(=O)O)C5)C4)C3)oc12)c1ccc(Cl)cc1Cl [Compound 11] | < 0.25 | 101 |  | 

Row | SMILES | IC50 [µM] | inhibition [1] [%] | % inhibition at 5 μM/30 μM (% E-Max) [% at 5 μM] | inhibition (CHO-K1, at 30 μM) [%]
20 | C[C@@H](Nc1c(OC(F)(F)F)ccc2nc(N3CC([C@H]4CCCN([C@H]5C[C@](C)(C(=O)O)C5)C4)C3)oc12)c1ccc(Cl)cc1Cl [Compound 12] | 0.25 to 0.5 | 99.3 |  | 
21 | C[C@@H](Nc1c(C(F)(F)F)ccc2nc(N3CC([C@H]4CCCN([C@H]5C[C@](C)(C(=O)O)C5)C4)C3)oc12)c1ccc(Cl)cc1Cl [Compound 13] | < 0.25 | 101 |  | 
22 | C[C@@H](Nc1nccc2nc(N3CC([C@H]4CCCN([C@H]5C[C@](C)(C(=O)O)C5)C4)C3)oc12)c1ccc(Cl)cc1Cl [Compound 14] | 0.25 to 0.5 | 96.4 |  | 
23 | C[C@@H](Nc1cncc2nc(N3CC([C@H]4CCCN([C@H]5C[C@](C)(C(=O)O)C5)C4)C3)oc12)c1ccc(Cl)cc1Cl [Compound 15] | 0.25 to 0.5 | 101 |  | 
24 | C[C@@H](Nc1ccnc2nc(N3CC([C@H]4CCCN([C@H]5C[C@](C)(C(=O)O)C5)C4)C3)oc12)c1ccc(Cl)cc1Cl [Compound 16] | < 0.25 | 103 |  | 
25 | C[C@@H](Nc1c(Cl)cnc2nc(N3CC([C@H]4CCCN([C@H]5C[C@](C)(C(=O)O)C5)C4)C3)oc12)c1ccc(Cl)cc1Cl [Compound 17] | 0.25 to 0.5 | 102 |  | 
26 | Cc1ccc2nc(N3CC([C@H]4CCCN([C@H]5C[C@](C)(C(=O)O)C5)C4)C3)oc2c1N[C@H](C)c1ccc(Cl)cc1Cl [Compound 18] | < 0.25 | 103 |  | 
27 | C[C@@H](Nc1c(C(N)=O)ccc2nc(N3CC([C@H]4CCCN([C@H]5C[C@](C)(C(=O)O)C5)C4)C3)oc12)c1ccc(Cl)cc1Cl [Compound 19] | 0.25 to 0.5 | 93.8 |  | 
28 | C[C@@H](Nc1c(C(=O)N(C)C)ccc2nc(N3CC([C@H]4CCCN([C@H]5C[C@](C)(C(=O)O)C5)C4)C3)oc12)c1ccc(Cl)cc1Cl [Compound 20] |  | 41.5 |  | 
29 | C[C@@H](Nc1c(C#N)ccc2nc(N3CC([C@H]4CCCN([C@H]5C[C@](C)(C(=O)O)C5)C4)C3)oc12)c1ccc(Cl)cc1Cl [Compound 21] | < 0.25 | 103 |  | 
30 | C[C@@H](Nc1cccc2nc(N3CC([C@H]4CCCN([C@H]5C[C@](C)(C(=O)O)C5)C4)C3)n(C)c12)c1ccc(Cl)cc1Cl [Compound 22] |  |  |  | 29.5
31 | C[C@@H](Nc1c(Cl)ccc2nc(N3CC([C@H]4CCCN([C@H]5C[C@](C)(C(=O)O)C5)C4)C3)sc12)c1ccc(Cl)cc1Cl [Compound 23] | < 0.25 | 104 |  | 
32 | C[C@@H](Nc1c(Cl)ccc2nc(N3CC([C@H]4CCCN(C5(CC(=O)O)CCC5)C4)C3)oc12)c1ccc(Cl)cc1Cl [Compound 24] |  | 61 |  | 
33 | C[C@@H](Nc1c(F)ccc2nc(N3CC([C@H]4CCCN([C@H]5C[C@](C)(C(=O)O)C5)C4)C3)sc12)c1ccc(Cl)cc1Cl [Compound 25] | < 0.25 | 101 |  | 
34 | C[C@@H](Nc1c(F)ccc2nc(N3CC(C4CN([C@H]5C[C@](C)(C(=O)O)C5)CCO4)C3)sc12)c1ccc(Cl)cc1Cl (some centres unmarked) [Compound 26] | < 0.25 | 103 |  | 
35 | C[C@@H](Nc1c(F)ccc2nc(N3CC([C@H]4CCCN([C@H]5C[C@](C)(C(=O)O)C5)C4)C3)sc12)c1ccc(F)cc1F [Compound 29] | < 0.25 | 103 |  | 
36 | C[C@@H](Nc1c(F)ncc2nc(N3CC([C@H]4CCCN([C@H]5C[C@](C)(C(=O)O)C5)C4)C3)sc12)c1ccc(Cl)cc1Cl [Compound 30] | < 0.25 | 103 |  | 
37 | C[C@@H](Nc1ncnc2nc(N3CC([C@H]4CCCN([C@H]5C[C@](C)(C(=O)O)C5)C4)C3)sc12)c1ccc(Cl)cc1Cl [Compound 32, (1R,3r)-3-((R)-3-(1-(7-(((R)-1-(2,4-Dichlorophenyl)ethyl)amino)thiazolo[4,5-d]pyrimidin-2-yl)azetidin-3-yl)piperidin-1-yl)-1-methylcyclobutane-1-carboxylic acid] | < 0.25 | 104 |  | 
38 | Cc1nc(N[C@H](C)c2ccc(Cl)cc2Cl)c2sc(N3CC([C@H]4CCCN([C@H]5C[C@](C)(C(=O)O)C5)C4)C3)nc2n1 [Compound 33] | < 0.25 | 103 |  | 
